Reference: US9890166B2, “Imidazopyrrolidine derivatives and their use in the treatment of disease” (NOVARTIS AG, priority 2013, dated 2018)

Key:
[1] = target: BRD4 (His-Brd4(44-477)) (Homo sapiens (Human), UniProt O60885); assay: TR-FRET in-vitro binding assay for BRD4; details: single determination or n ≧ 2 independent determinations, read-out: Biochemical IC50 BRD4
Method in brief: (§1)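 His-tagged BRD2, BRD3 and BRD4 fragments tested by TR-FRET at 8 compound concentrations, with DMSO stocks at 10 mM. Read on EnVision after 35 min incubation at 30° C.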

[2] = target: BRD2 (His-Brd2(60-472)) (Homo sapiens (Human), UniProt P25440); assay: TR-FRET in-vitro binding assay for BRD2; details: single determination or n ≧ 2 independent determinations, read-out: Biochemical IC50 BRD2
Sequence of BRD2 (His-Brd2(60-472)) (P25440 60-472): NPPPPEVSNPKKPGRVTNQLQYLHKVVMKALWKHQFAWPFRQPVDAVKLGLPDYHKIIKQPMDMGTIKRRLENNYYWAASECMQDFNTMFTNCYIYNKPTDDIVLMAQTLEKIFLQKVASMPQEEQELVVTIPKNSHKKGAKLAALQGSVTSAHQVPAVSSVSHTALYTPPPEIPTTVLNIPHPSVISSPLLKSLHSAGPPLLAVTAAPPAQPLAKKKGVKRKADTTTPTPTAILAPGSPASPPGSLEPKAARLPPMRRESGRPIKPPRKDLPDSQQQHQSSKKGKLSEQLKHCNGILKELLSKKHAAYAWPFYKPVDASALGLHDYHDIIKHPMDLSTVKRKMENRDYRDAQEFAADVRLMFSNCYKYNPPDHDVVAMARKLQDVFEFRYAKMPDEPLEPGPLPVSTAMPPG
Method in brief: as §1

[3] = target: BRD3 (His-Brd3(20-477)) (Homo sapiens (Human), UniProt Q15059); assay: TR-FRET in-vitro binding assay for BRD3; details: single determination or n ≧ 2 independent determinations, read-out: Biochemical IC50 BRD3
Sequence of BRD3 (His-Brd3(20-477)) (Q15059 20-477): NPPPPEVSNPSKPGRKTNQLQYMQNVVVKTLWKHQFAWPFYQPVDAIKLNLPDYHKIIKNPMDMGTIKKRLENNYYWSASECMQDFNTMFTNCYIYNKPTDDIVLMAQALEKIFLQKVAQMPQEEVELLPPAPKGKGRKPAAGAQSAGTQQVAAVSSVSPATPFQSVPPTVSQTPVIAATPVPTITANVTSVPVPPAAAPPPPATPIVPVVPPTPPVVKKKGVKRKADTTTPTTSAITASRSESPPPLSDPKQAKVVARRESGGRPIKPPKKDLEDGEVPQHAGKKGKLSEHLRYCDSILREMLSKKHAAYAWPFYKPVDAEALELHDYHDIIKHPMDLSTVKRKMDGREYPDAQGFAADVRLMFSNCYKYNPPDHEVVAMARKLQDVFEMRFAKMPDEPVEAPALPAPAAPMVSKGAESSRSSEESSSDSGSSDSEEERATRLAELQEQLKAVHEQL
Method in brief: as §1

[4] = target: CREBBP bromodomain (His-CREBBP(1081-1197)) (Homo sapiens (Human), UniProt Q92793); assay: AlphaScreen in-vitro binding assay for CREBBP; details: single determination or n ≧ 2 independent determinations, read-out: Biochemical IC50 CREBBP
Sequence of CREBBP bromodomain (His-CREBBP(1081-1197)) (Q92793 1081-1197): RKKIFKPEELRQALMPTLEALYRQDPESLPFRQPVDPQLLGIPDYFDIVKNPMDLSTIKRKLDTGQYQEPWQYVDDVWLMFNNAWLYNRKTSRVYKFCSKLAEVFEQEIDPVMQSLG
Method in brief: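 Detection used nickel-chelate acceptor plus streptavidin donor AlphaScreen beads, 1 h room temperature. Percent inhibition fitted by non-linear regression to IC50.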

[5] = target: nuclear BRD4-NUT foci in HCC2494 NUT midline carcinoma cells (Homo sapiens, UniProt O60885); assay: cell-based
[6] = test system: THP-1 cells; assay: Cell growth inhibition assay (CellTiter-Glo), THP-1; details: for GI50: Homo sapiens, THP-1, read-out: THP-1 GI50; for THP-1 TGI: THP-1 cells, total growth inhibition, CellTiter-Glo;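 as to all read-outs here: viability read as cellular ATP luminescence after 4 days, 3-fold dilution series from 10 µM, DMSO vehicle-treated cells taken as 100%, cell-free medium wells as −100%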
[7] = test system: K-562 cells; assay: Cell growth inhibition assay (CellTiter-Glo), K-562; details: for GI50: Homo sapiens, K562, read-out: K-562 GI50; for K-562 TGI: K-562 cells, total growth inhibition, CellTiter-Glo;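 as to all read-outs here: cellular ATP measured by luminescence after 4 days of exposure, 3-fold dilution series from 10 µM, DMSO vehicle-treated cells define 100%, cell-free medium wells −100%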
[8] = test system: MV-4-11 cells; assay: Cell growth inhibition assay (CellTiter-Glo), MV-4-11; details: for GI50: Homo sapiens, MV4-11, read-out: MV-4-11 GI50; for MV-4-11 TGI: MV-4-11 cells, total growth inhibition, CellTiter-Glo;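 as to all read-outs here: cellular ATP luminescence after 4 days, 3-fold dilution series from 10 µM top dose, vehicle (0.1% DMSO) set to 100%, cell-free medium set to −100%, day 0 corrected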

Row | SMILES | IC50 [1] | IC50 [2] | IC50 [3] | IC50 [4] | IC50 [5] | GI50 [6] | GI50 [7] | GI50 [8] | THP-1 TGI [6] | K-562 TGI [7] | MV-4-11 TGI [8]
1 | Cc1cc(N2C(=O)c3nc(-c4nccs4)n(C4CC4)c3C2c2ccc(Cl)cc2)cn(C)c1=O (stereo not shown) [Example 43, 6-(4-chlorophenyl)-1-cyclopropyl-5-(1,5-dimethyl-6-oxo-1,6-dihydropyridin-3-yl)-2-(thiazol-2-yl)-5,6-dihydropyrrolo[3,4-d]imidazol-4(1H)-one] | 64 nM | 59.5 nM | 55 nM | 32300 nM | 52.9 nM | 90.5 nM | 356 nM | 66.2 nM | 162.5 nM | >10000 nM | 99.55 nM
2 | Cc1cc(N2C(=O)c3[nH]c(C4CC4)nc3C2c2ccc(Cl)cc2)cn(C)c1=O (stereo not shown) [Example 46, 6-(4-chlorophenyl)-2-cyclopropyl-5-(1,5-dimethyl-6-oxo-1,6-dihydropyridin-3-yl)-5,6-dihydropyrrolo[3,4-d]imidazol-4(3H)-one] | 78 nM | 84 nM | 77 nM | 2000 nM | 226 nM | 145 nM | 499 nM | 65.3 nM | 305 nM | >10000 nM | 108 nM
3 | Cc1cc(N2C(=O)c3[nH]c(C4CC4)nc3[C@H]2c2ccc(Cl)cc2)cn(C)c1=O [Example 47, R-6-(4-chlorophenyl)-2-cyclopropyl-5-(1,5-dimethyl-6-oxo-1,6-dihydropyridin-3-yl)-5,6-dihydropyrrolo[3,4-d]imidazol-4(3H)-one] | 40 nM | 39 nM | 38 nM | 1100 nM | 81.3 nM | 74.3 nM | 305 nM | 42.5 nM | 141 nM | >10000 nM | 102.8 nM
4 | COc1ccc(-c2nc3c(n2C(C)C)C(c2ccc(Cl)cc2)N(c2cc(OC)c4nnc(C)n4c2)C3=O)cn1 (stereo not shown) [Example 52, 6-(4-chlorophenyl)-1-isopropyl-5-(8-methoxy-3-methyl-[1,2,4]triazolo[4,3-a]pyridin-6-yl)-2-(6-methoxypyridin-3-yl)-5,6-dihydropyrrolo[3,4-d]imidazol-4(1H)-one] | 35 nM | 80 nM | 63 nM | > 37000 nM | 710 nM | 981 nM | 2480 nM | 271 nM | 1920 nM | >10000 nM | 409 nM
5 | COc1cc(N2C(=O)c3nc(C4=CCOCC4)n(C(C)C)c3C2c2ccc(Cl)cc2)cn2c(C)nnc12 (stereo not shown) [Example 53, 6-(4-chlorophenyl)-2-(3,6-dihydro-2H-pyran-4-yl)-1-isopropyl-5-(8-methoxy-3-methyl-[1,2,4]triazolo[4,3-a]pyridin-6-yl)-5,6-dihydropyrrolo[3,4-d]imidazol-4(1H)-one] | 92 nM | 220 nM | 200 nM | > 37000 nM | 1330 nM | 1270 nM | 7990 nM | 505 nM | 3740 nM | >10000 nM | 939 nM
6 | COc1cc(N2C(=O)c3nc(C4CC4)n(C)c3C2c2ccc(Cl)cc2)cn2c(C)nnc12 (stereo not shown) [Example 56, 6-(4-chlorophenyl)-2-cyclopropyl-5-(8-methoxy-3-methyl-[1,2,4]triazolo[4,3-a]pyridin-6-yl)-1-methyl-5,6-dihydropyrrolo[3,4-d]imidazol-4(1H)-one] | 130 nM | 290 nM | 210 nM | > 37000 nM | 1210 nM | 1240 nM | 3230 nM | 816 nM | 3670 nM | >10000 nM | 1340 nM
7 | Cc1cc(N2C(=O)c3c(nc(C)n3C(C)C)[C@H]2c2ccc(Cl)cc2)cc2c1nnn2C [Example 118, (R)-6-(4-chlorophenyl)-5-(3,7-dimethyl-3H-benzo[d][1,2,3]triazol-5-yl)-3-isopropyl-2-methyl-5,6-dihydropyrrolo[3,4-d]imidazol-4(3H)-one] | < 11 nM | 14 nM | 12 nM | 1080 nM | 3.4 nM | 5.12 nM | 28.4 nM | 2.1 nM | 12.5 nM | >10000 nM | 3.79 nM

Now from value to compound, other results behind:

Row | IC50 [1] | IC50 [2] | IC50 [3] | IC50 [4] | IC50 [5] | GI50 [6] | GI50 [7] | GI50 [8] | SMILES | THP-1 TGI [6] | K-562 TGI [7] | MV-4-11 TGI [8]
8 | 16 nM | 17 nM | 17 nM | 1000 nM | 49.7 nM | 32.8 nM | 126 nM | 22.5 nM | COc1ncccc1-c1nc2c(n1C(C)C)C(=O)N(c1cc(C)c(=O)n(C)c1)[C@@H]2c1ccc(Cl)cc1 [Example 45, (R)-6-(4-chlorophenyl)-5-(1,5-dimethyl-6-oxo-1,6-dihydropyridin-3-yl)-3-isopropyl-2-(2-methoxypyridin-3-yl)-5,6-dihydropyrrolo[3,4-d]imidazol-4(3H)-one] | 60.5 nM | >10000 nM | 43.9 nM
9 | 59 nM | 120 nM | 98 nM | > 37000 nM | 3390 nM | 3710 nM | > 10000 nM | 2100 nM | COc1ncc(-c2nc3c(n2C)C(c2ccc(Cl)cc2)N(c2cc(OC)c4nnc(C)n4c2)C3=O)c(OC)n1 (stereo not shown) [Example 54, 6-(4-chlorophenyl)-2-(2,4-dimethoxypyrimidin-5-yl)-5-(8-methoxy-3-methyl-[1,2,4]triazolo[4,3-a]pyridin-6-yl)-1-methyl-5,6-dihydropyrrolo[3,4-d]imidazol-4(1H)-one] | >10000 nM | >10000 nM | 3600 nM
10 | 56 nM | 110 nM | 92 nM | > 37000 nM | 2800 nM | 2000 nM | 7250 nM | 706 nM | COc1ccc(-c2nc3c(n2C)C(c2ccc(Cl)cc2)N(c2cc(OC)c4nnc(C)n4c2)C3=O)cn1 (stereo not shown) [Example 55, 6-(4-chlorophenyl)-5-(8-methoxy-3-methyl-[1,2,4]triazolo[4,3-a]pyridin-6-yl)-2-(6-methoxypyridin-3-yl)-1-methyl-5,6-dihydropyrrolo[3,4-d]imidazol-4(1H)-one] | 4410 nM | >10000 nM | 1060 nM
11 | < 11 nM | < 11 nM | < 11 nM | 5100 nM | 91.2 nM | 83.6 nM | 572 nM | 40.5 nM | Cc1cc(N2C(=O)c3nc(C4CC4)n(C)c3C2c2ccc(Cl)cc2)cn2c(C)nnc12 (stereo not shown) [Example 57, 6-(4-chlorophenyl)-2-cyclopropyl-5-(3,8-dimethyl-[1,2,4]triazolo[4,3-a]pyridin-6-yl)-1-methyl-5,6-dihydropyrrolo[3,4-d]imidazol-4(1H)-one] | 193 nM | >10000 nM | 68.8 nM
